In US20260209202A1, “N-METHYL-4-(QUINOLIN-2-YL)PYRIDIN-2-AMINE COMPOUNDS” (Abbvie Inc., priority 2023, published 2026):
pKd: −log10 of the molar value.

Legend:
[1] = PET imaging in cynomolgus macaques, baseline and homologous self-block; assay type: in vivo; conditions: for off-target binding in brain: healthy cynomolgus macaques; for blood brain barrier crossing / brain uptake and clearance: intravenous radiotracer
Protocol: PET imaging procedures in cynomolgus macaques were performed under the guidelines of the Institutional Animal Care and Use Committee. Anesthesia was maintained using isoflurane gas maintained at 1.25-3.0% for the duration of the imaging procedures. Prior to PET imaging, a head computed tomography (CT) was acquired using a Neurologica CereTom® CT system (Neurologica, Danvers, MA, USA) which was used for localization of the animal in the PET system, and later for attenuation correction of the PET data.
The radiotracer was administered as a bolus injection (3 mL over 2 minutes), and data collected in dynamic list mode emission acquisition was initiated using a Siemens Concorde microPET® Focus™ 220 (Siemens USA, Washington DC, USA) for 120 minutes. Arterial blood samples were acquired throughout the PET acquisition to measure radioactivity in whole blood and plasma and to assess the % parent and metabolite(s) for generation of an input function for kinetic modeling analysis. The whole blood arterial samples were acquired, initially rapidly (every 30 seconds) and decreased in frequency towards the end of the PET acquisition to every 30 minutes. Arterial whole blood samples were counted in a well counter (PerkinElmer Wizard® 1470; PerkinElmer, Waltham, MA, USA) for radioactivity concentration. Samples were then centrifuged (3000 RCF for 5 minutes) to allow extraction of plasma which was subsequently counted for radioactivity concentration. To determine the proportion of unchanged radiotracer, selected plasma samples (1, 2, 3, 4, 7, 9, 15, 20, 40, 60, 90, and 120 minutes) were extracted with equal volumes of acetonitrile, then injected onto a Dionex/Thermo Ultimate 3000 radio-HPLC system (ThermoFisher, Waltham, MA, USA) consisting of a Phenomenex® Onyx™ C18 10×100 mm column (Torrance, CA, USA), an Eckert and Ziegler coincidence BGO radiodetector (model B-FC-4100, Eckert and Ziegler, Atlanta, GA, USA) and a mobile phase of (A) 10 mM ammonium acetate and (B) acetonitrile. The conditions for [^18F] Compound (I) are: 0-2.5 min, 95% A at 4 mL/min; 2.5-2.6 min, 95% A to 50% A at 4 mL/min to 3 mL/min; 2.6-10 min, 50% A at 3 mL/min; 10-10.1 min, 50% A to 95% A at 3 mL/min to 4 mL/min; 10.1-13 min, 95% A at 4 mL/min. Retention time for [^18F] Compound (I) was 8.4 min. The conditions for [^18F] Compound (II) are: 0-2.5 min, 95% A at 4 mL/min; 2.5-2.6 min, 95% A to 65% A at 4 mL/min to 3 mL/min; 2.6-10 min, 65% A at 3 mL/min; 10-10.1 min, 65% A to 95% A at 3 mL/min to 4 mL/min; 10.1-13 min, 95% A at 4 mL/min. Retention time for [^18F] Compound (II) was 9.3 min. Arterial sampling data was used to generate the input function for kinetic modeling. Potential off-target specific binding in the brain was evaluated for each lead radiotracer using a pre-dosing paradigm in which PET was performed after administration of a 1 mg/kg homologous dose of the non-radioactive tracer over a 15-minute infusion 20 minutes prior to radiotracer injection.
Upon the completion of PET image acquisition, anesthesia was terminated, primates were monitored until fully alert, then transported to their cages. In addition to PET imaging, each primate underwent separate MRI imaging (GE Discovery™ 3T MR750 MRI scanner and GE Signa™ HDxt 1.5T MRI scanner, GE Healthcare, Chicago, IL, USA) for acquisition of a structural T1w image for purposes of co-registration and transformation to a standard atlas space. The PET data analysis was performed, and images were reconstructed using Siemens MicroPET® Manager and AsiPro (Siemens) software. PET list mode data was binned into sinograms with time frames of 6×30 seconds, 3×1 minutes, 2×2 minutes, 22×5 minutes. Images were reconstructed using filtered back projection using a Hanning filter with a 0.5 cycles/pixel cutoff. Corrections for attenuation (using the acquired CT), scatter, and deadtime correction were applied. Furthermore, the dynamic images were decay-corrected to start of PET acquisition, which coincided with the radiotracer injection. […]

[2] = system: tau aggregates in globus pallidus and putamen of PSP brains; test: In vitro autoradiography of radioligand binding to sections of globus pallidus and putamen from PSP and normal brains; set-up: species or system human
From the text: Brain Tissue. Flash-frozen (FF) tissue blocks, and, for some cases, the corresponding mirrored, formalin-fixed, paraffin-embedded (FFPE) tissue blocks from the globus pallidus and putamen of normal or Progressive Supranuclear Palsy (PSP) brains were purchased from Tissue Solutions Ltd (TS; Glasgow, UK). Both FF and FFPE tissue blocks were used to assess the distribution pattern of [3H] Compound (I) and [3H] Compound (II) binding to normal and PSP brain samples by means of in vitro autoradiography. Only FF tissue blocks were used to determine the affinity of [^3H] Compound (I) and [^3H] Compound (II) for PSP brain by means of in vitro autoradiography. […]
In vitro autoradiography. […] The plates were read using a Phosphoimager Typhoon™ FLA-70001P (GE Healthcare, Chicago, IL USA). […]
Quantitative analysis of the in vitro autoradiography results. Quantitative analysis was performed by computer assisted micro-densitometry (MCD; MCID basic, Interfocus, Devon, UK). […] Identification of the areas of interest was determined by reference to the Atlas of the Human Brain (Mai et al., 2015, Elsevier, ISBN:9780128028018). […]

[3] = target: tau aggregates in globus pallidus and putamen of PSP brains (Homo sapiens, UniProt P10636); test: Homologous (self-) displacement in vitro autoradiography on FF PSP brain sections; assay type: binding; conditions: 3 nM radioligand displaced by corresponding non-radiolabeled compound, mean of three PSP brains, read-out: sdKD (KD determined by means of self-displacement experiments)
tau aggregates in globus pallidus and putamen of PSP brains (Homo sapiens, UniProt P10636), sequence (P10636 with tags, fused parts or gaps): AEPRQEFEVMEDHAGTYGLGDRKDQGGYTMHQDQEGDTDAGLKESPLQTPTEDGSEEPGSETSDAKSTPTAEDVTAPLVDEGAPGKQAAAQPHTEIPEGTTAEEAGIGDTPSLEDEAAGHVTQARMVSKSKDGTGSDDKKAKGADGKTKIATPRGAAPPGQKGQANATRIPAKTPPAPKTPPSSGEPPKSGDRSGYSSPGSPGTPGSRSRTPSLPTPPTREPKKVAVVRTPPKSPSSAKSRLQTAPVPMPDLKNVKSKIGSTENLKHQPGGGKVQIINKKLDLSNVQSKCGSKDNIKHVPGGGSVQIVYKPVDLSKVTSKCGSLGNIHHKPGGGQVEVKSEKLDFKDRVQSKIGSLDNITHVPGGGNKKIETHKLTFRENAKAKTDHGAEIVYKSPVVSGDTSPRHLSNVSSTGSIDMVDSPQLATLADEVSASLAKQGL
From the text: Brain Tissue. Flash-frozen (FF) tissue blocks, and, for some cases, the corresponding mirrored, formalin-fixed, paraffin-embedded (FFPE) tissue blocks from the globus pallidus and putamen of normal or Progressive Supranuclear Palsy (PSP) brains were purchased from Tissue Solutions Ltd (TS; Glasgow, UK). Both FF and FFPE tissue blocks were used to assess the distribution pattern of [3H] Compound (I) and [3H] Compound (II) binding to normal and PSP brain samples by means of in vitro autoradiography. Only FF tissue blocks were used to determine the affinity of [^3H] Compound (I) and [^3H] Compound (II) for PSP brain by means of in vitro autoradiography. […] The plates were read using a Phosphoimager Typhoon™ FLA-70001P (GE Healthcare, Chicago, IL USA). […] Quantitative analysis of the in vitro autoradiography results. Quantitative analysis was performed by computer assisted micro-densitometry (MCD; MCID basic, Interfocus, Devon, UK). […] Identification of the areas of interest was determined by reference to the Atlas of the Human Brain (Mai et al., 2015, Elsevier, ISBN:9780128028018). […]

| SMILES | off-target binding in brain [1] | blood brain barrier crossing [1] | brain uptake and clearance [1] | amount of radioligand bound to the tissue, PSP brains versus normal brains ([2]; 3 nM radioligand, grey matter of FF globus pallidus and putamen sections) | selectivity for tau aggregates in PSP affected brain tissue as compared to healthy brain tissue ([2]; globus pallidus and putamen) | pKd [3] | relative brain uptake among the tracers ([1]; initial brain SUV after injection) |
| --- | --- | --- | --- | --- | --- | --- | --- |
| CNc1cc(-c2ccc3cc(N4CC(O)(C[18F])C4)ccc3n2)ccn1 [[^18F] Compound (II), 3-[(^18F)fluoromethyl]-1-{2-[2-(methylamino)pyridin-4-yl]quinolin-6-yl}azetidin-3-ol] | did not show significant off-target binding | ability to cross the blood brain barrier | rapid uptake and rapid clearance |  |  |  |  |
| [3H]C([3H])([3H])Nc1cc(-c2ccc3cc(OCCOC)cc(F)c3n2)ccn1 [[^3H] Compound (I)] [4-[8-fluoro-6-(2-methoxyethoxy)quinolin-2-yl]-N—(^3H3)methylpyridin-2-amine] |  |  |  | 2.1 times | high degree of selectivity |  |  |
| CNc1cc(-c2ccc3cc(OCCOC)cc(F)c3n2)ccn1 [[^3H] Compound (I)] [4-[8-fluoro-6-(2-methoxyethoxy)quinolin-2-yl]-N—(^3H3)methylpyridin-2-amine] |  |  |  |  |  | 7.91 |  |
| CNc1cc(-c2ccc3cc(OCCOC)cc([18F])c3n2)ccn1 [[^18F] Compound (I), 4-[8-(^18F)fluoro-6-(2-methoxyethoxy)quinolin-2-yl]-N-methylpyridin-2-amine] | did not show significant off-target binding | ability to cross the blood brain barrier | rapid uptake and rapid clearance |  |  |  | highest uptake |
